Source: publication PMC9749936, “Synthesis and structure–activity relationship studies of N-terminal analogues of the lipopeptide antibiotics brevicidine and laterocidine” (RSC Medicinal Chemistry, 2022)
Bridge positions count the residues as written; N and C are the ends. Square brackets hold non-standard residues; d marks the D form. Peptide text beside a SMILES is read from it. * marks the point of attachment. Palmitoyl = CCCCCCCCCCCCCCCC(=O)*; Myristoyl = CCCCCCCCCCCCCC(=O)*; Lauroyl = CCCCCCCCCCCC(=O)*; Decanoyl = CCCCCCCCCC(=O)*; dOrn = NCCC[C@@H](N)C(=O)O; Orn = NCCC[C@H](N)C(=O)O

How the values were obtained:
S. aureus USA300 = type: cell-based, Staphylococcus aureus; details: USA300, 18 h
Protocol: (§1) The minimum inhibitory concentrations (MICs) of brevicidine and laterocidine analogues were determined against a panel of clinically relevant ESKAPE pathogens; Escherichia coli (E. coli), Klebsiella pneumoniae (K. pneumoniae), Acinetobacter baumannii (A. baumannii), Pseudomonas aeruginosa (P. aeuroginosa) and Staphylococcus aureus (S. aureus), which cause the majority of nosocomial infections in the United States.[16] […] In this resistance mechanism, the polymyxin target (lipid A) is modified, reducing binding affinity. For this reason, a strain of colistin-resistant E. coli carrying the mcr-1 gene was also included in the panel. […]
(§2) IV. Antimicrobial testing
(§3) All minimum inhibitory concentrations (MICs) were determined according to Clinical and Standards Laboratory Institute (CLSI) guidelines. Blood agar plates were inoculated with glycerol stocks of E. coli ATCC 25922, K. pneumoniae ATCC 13883, A. baumannii ATCC 17961, P. aeruginosa PAO1 and S. aureus USA300. The inoculated agar plates were then incubated for 16 h at 37 °C . Individually grown colonies were subsequently used to inoculate 5 mL aliquots of TSB that were then incubated at 37 °C with shaking at 220 rpm. E. coli 25922 MCR-1 glycerol stock was used to inoculate 5 mL of TSB supplemented with kanamycin that was then incubated for 16 h at 37 °C with shaking at 220 rpm. The next day the culture was diluted 100 fold in TSB supplemented with kanamycin and incubated at 37 °C with shaking at 220 rpm. In parallel, the lipopeptide antibiotics DMSO stocks to be assessed were serially diluted with MHB in polypropylene 96-well plates (50 µL in each well). Colistin sulfate stocks were dissolved in water before being diluted with MHB. Aliquots of the inoculated TSB were incubated until an OD600 of around 0.5 was reached. The bacterial suspensions were then diluted with MHB (2 x 10^5 CFU mL-1) and added to the microplates containing the test compounds (50 µL to each well). The well-plates were sealed with an adhesive membrane and after 18 h of incubation at 37 °C with shaking at 600 rpm, the wells were visually inspected for bacterial […]
(§4) growth. MIC values reported are based on three technical replicates and defined as the lowest concentration of the compound that prevented visible growth of bacteria. […]
(§5) The values obtained from a read-out at 415 nm were corrected for background (negative control) and transformed to a percentage relative to the positive control.
(§6) VI. HPLC and HRMS analysis of peptides
(§7) Peptide Name Chemical Calcd Mass found Calcd Overall […]

E. coli ATCC 25922 = type: cell-based, Escherichia coli; details: ATCC 25922, 18 h
Protocol: as §1, §2, §3, §4, §5, §6, §7

P. aeruginosa PAO1 = type: cell-based, Pseudomonas aeruginosa; details: PAO1, 18 h
Protocol: as §1, §2, §3, §4, §5, §6, §7

Sheep red blood cells = type: cell-based; details: red cells of sheep, 1 h, 64 μg mL^−1
Protocol: Having ascertained the antimicrobial activity of all synthetic peptides against a panel of ESKAPE pathogens, we next assessed their mammalian toxicity with hemolytic assays using sheep red blood cells. The % hemolysis for all peptides at 64 μg mL^−1 was determined, with the hemolysis induced by the surfactant 0.1% Triton X-100 taken as 100%. […] Hemolysis was <1% for all analogues with a C8 chain or shorter, including the strongest antibacterial peptide C8-Lat (22). Hemolytic activity increased up to C14 (>50% for C14-Lat) and then decreased at longer chain lengths, perhaps due to decreased solubility of peptides or aggregation. […]
Phosphate-Buffered Saline (PBS) containing 0.002% Tween20 (buffer) five times. Then, the red blood cells were normalized to obtain a positive control read-out between 2.5 and 3.0 at 415 nm to stay within the linear range with the maximum sensitivity. A serial dilution of the compounds (128 – 1 µg/mL, 75 µL) was prepared in a 96-well polypropylene plate. The outer border of the plate was filled with 75 µL buffer. Each plate contained a positive control (0.1% Triton-X final concentration, 75 µL) and a negative control (buffer, 75 µL) in triplicate. The normalized blood cells (75 µL) were added and the plates were incubated at 37 °C for 1 h while shaking at 500 rpm. A flat-bottom polystyrene plate with 100 µL buffer in each well was prepared. After incubation, the plates were centrifuged (800 g for 5 min at room temperature) and 25 µL of the supernatant was transferred to their respective wells in the flat-bottom plate. The values obtained from a read-out at 415 nm were corrected for background (negative control) and transformed to a percentage relative to the positive control. […]

K. pneumoniae ATCC 13883 = type: cell-based, Klebsiella pneumoniae; details: ATCC 13883, 18 h
Protocol: as §1, §2, §3, §4, §5, §6, §7

E. coli ATCC 25922 MCR-1 = type: cell-based, Escherichia coli; details: colistin-resistant strain carrying mcr-1; CLSI broth microdilution in MHB, 18 h at 37 °C, visual inspection; three technical replicates
Protocol: as §1
Colisitin sulfate was purchased from Activate Scientific. Kanamycin monosulfate was purchased from MP Biomedicals. E. coli ATCC 25922, S. aureus USA300 (ATCC BAA1717), K. pneumoniae ATCC 13883 and A. baumannii ATCC 17961 belong to the American Type Culture Collection (ATCC). P. aeruginosa PAO1 was kindly provided by L.H.C. Quarles Van Ufford, Utrecht University, Utrecht, The Netherlands. E. coli ATCC 25922 MCR-1 was transfected in house using the pGDP2-MCR1 plasmid kindly provided by Yong-Xin Li, The University of Hong Kong, Hong Kong, China. Sheep blood agar plates (Ref. PB5039A) were purchased from Thermo Scientific. Tryptic soy broth (Ref. 02-200-500) was purchased from Scharlab. Mueller-Hinton broth (Ref. X927.1) was purchased from Carl Roth. Polypropylene 96-wells plates (Ref. 3879) were purchased from Corning. […]
(10.0 mL). 2-Chlorotrityl (CT) chloride resin (2.00 g, 0.81 mmol g-1) and DIPEA (420 µL, 2.40 mmol) were added. […]
A gradient […]
method for C14 - C16 laterocidine was employed, starting at 100% solvent A for 2 min, ramping up to 70 % solvent B over 45 min, ramping up to 100% solvent B over 1 min, remaining there for 6 min before ramping down to 100% solvent A and remaining there for 5 min. High resolution mass spectrometry (HRMS) spectra of brevicidine peptides were recorded by Analytical Services and Environmental Projects (ASEP) at Queen’s University Belfast on a Waters LCT Premier ToF mass spectrometer using the electrospray ionisation (ESI) technique. HRMS spectra of laterocidine peptides were performed on a Thermo Scientific Dionex UltiMate 3000 HPLC system with a Phenomenex Kinetex C18 (2.6 µm, 2.1 x 150 mm) column at 35 °C and equipped with a diode array detector. The following solvent system, at a flow rate of 0.3 mL/min, was used: solvent A = 0.1% formic acid in water, solvent B = 0.1% formic acid in acetonitrile. A gradient method was employed, starting at 95 % solvent A and 5 % solvent B for 1 min, ramping up to 95 % solvent B over 9 min, ramping up to 98 % solvent B over 1 min, remaining there for 1 min before ramping back down to 95 % solvent A over 2 min and remaining there for 1 min.
The system was connected to a Bruker micrOTOF-Q II mass spectrometer (ESI ionization) calibrated internally with sodium […]
as §2
as §3, with “MHB.” for “MHB. Aliquots of the inoculated TSB were incubated until an OD600 of around 0.5 was reached. The bacterial suspensions were then diluted with MHB (2 x 10^5 CFU mL-1) and added to the microplates containing the test compounds (50 µL to each well). The well-plates were sealed with an adhesive membrane and after 18 h of incubation at 37 °C with shaking at 600 rpm, the wells were visually inspected for bacterial”

A. baumannii ATCC 17961 = type: cell-based, Acinetobacter baumannii; details: ATCC 17961, 18 h
Protocol: as §1, §2, §3, §4, §5, §6, §7

CCCCCCCCCC(=O)N[C@H](CC(N)=O)C(=O)N[C@H](Cc1ccc(O)cc1)C(=O)N[C@H](Cc1c[nH]c2ccccc12)C(=O)N[C@H](CCCN)C(=O)N[C@@H](CCCN)C(=O)NCC(=O)N[C@H](CCCN)C(=O)N[C@@H](Cc1c[nH]c2ccccc12)C(=O)N[C@@H]1C(=O)N[C@@H]([C@@H](C)CC)C(=O)NCC(=O)N[C@@H](CO)C(=O)O[C@@H]1C [Compound 14] (Decanoyl-[dN][dY][dW][dOrn][Orn]G[dOrn]WTIGS; ester 9-C)
Antimicrobial activity (MIC) S. aureus USA300 (S. aureus USA300): 32 µg/mL | Antimicrobial activity (MIC) E. coli ATCC 25922 (E. coli ATCC 25922): 4 µg/mL | Antimicrobial activity (MIC) P. aeruginosa PAO1 (P. aeruginosa PAO1): 8 µg/mL | % Hemolytic activity, sheep red blood cells (Sheep red blood cells): 6.2% | Antimicrobial activity (MIC) K. pneumoniae ATCC 13883 (K. pneumoniae ATCC 13883): 4 µg/mL | Antimicrobial activity (MIC) E. coli ATCC 25922 MCR-1 (E. coli ATCC 25922 MCR-1): 4 µg/mL | Antimicrobial activity (MIC) A. baumannii ATCC 17961 (A. baumannii ATCC 17961): 4 µg/mL

CCCCCCCCCCCC(=O)N[C@H](CC(N)=O)C(=O)N[C@H](Cc1ccc(O)cc1)C(=O)N[C@H](Cc1c[nH]c2ccccc12)C(=O)N[C@H](CCCN)C(=O)N[C@@H](CCCN)C(=O)NCC(=O)N[C@H](CCCN)C(=O)N[C@@H](Cc1c[nH]c2ccccc12)C(=O)N[C@@H]1C(=O)N[C@@H]([C@@H](C)CC)C(=O)NCC(=O)N[C@@H](CO)C(=O)O[C@@H]1C [Compound 15] (Lauroyl-[dN][dY][dW][dOrn][Orn]G[dOrn]WTIGS; ester 9-C)
Antimicrobial activity (MIC) S. aureus USA300 (S. aureus USA300): 32 µg/mL | Antimicrobial activity (MIC) E. coli ATCC 25922 (E. coli ATCC 25922): 8 µg/mL | Antimicrobial activity (MIC) P. aeruginosa PAO1 (P. aeruginosa PAO1): 16 µg/mL | % Hemolytic activity, sheep red blood cells (Sheep red blood cells): 13.3% | Antimicrobial activity (MIC) K. pneumoniae ATCC 13883 (K. pneumoniae ATCC 13883): 8 µg/mL | Antimicrobial activity (MIC) E. coli ATCC 25922 MCR-1 (E. coli ATCC 25922 MCR-1): 8 µg/mL | Antimicrobial activity (MIC) A. baumannii ATCC 17961 (A. baumannii ATCC 17961): 4 µg/mL

CCCCCCCCCCCCCC(=O)N[C@H](CC(N)=O)C(=O)N[C@H](Cc1ccc(O)cc1)C(=O)N[C@H](Cc1c[nH]c2ccccc12)C(=O)N[C@H](CCCN)C(=O)N[C@@H](CCCN)C(=O)NCC(=O)N[C@H](CCCN)C(=O)N[C@@H](Cc1c[nH]c2ccccc12)C(=O)N[C@@H]1C(=O)N[C@@H]([C@@H](C)CC)C(=O)NCC(=O)N[C@@H](CO)C(=O)O[C@@H]1C [Compound 16] (Myristoyl-[dN][dY][dW][dOrn][Orn]G[dOrn]WTIGS; ester 9-C)
Antimicrobial activity (MIC) S. aureus USA300 (S. aureus USA300): >32 µg/mL | Antimicrobial activity (MIC) E. coli ATCC 25922 (E. coli ATCC 25922): 16 µg/mL | Antimicrobial activity (MIC) P. aeruginosa PAO1 (P. aeruginosa PAO1): 32 µg/mL | % Hemolytic activity, sheep red blood cells (Sheep red blood cells): 18.0% | Antimicrobial activity (MIC) K. pneumoniae ATCC 13883 (K. pneumoniae ATCC 13883): 32 µg/mL | Antimicrobial activity (MIC) E. coli ATCC 25922 MCR-1 (E. coli ATCC 25922 MCR-1): 16 µg/mL | Antimicrobial activity (MIC) A. baumannii ATCC 17961 (A. baumannii ATCC 17961): 4 µg/mL

CCCCCCCCCCCCCCCC(=O)N[C@H](CC(N)=O)C(=O)N[C@H](Cc1ccc(O)cc1)C(=O)N[C@H](Cc1c[nH]c2ccccc12)C(=O)N[C@H](CCCN)C(=O)N[C@@H](CCCN)C(=O)NCC(=O)N[C@H](CCCN)C(=O)N[C@@H](Cc1c[nH]c2ccccc12)C(=O)N[C@@H]1C(=O)N[C@@H]([C@@H](C)CC)C(=O)NCC(=O)N[C@@H](CO)C(=O)O[C@@H]1C [Compound 17] (Palmitoyl-[dN][dY][dW][dOrn][Orn]G[dOrn]WTIGS; ester 9-C)
Antimicrobial activity (MIC) S. aureus USA300 (S. aureus USA300): >32 µg/mL | Antimicrobial activity (MIC) E. coli ATCC 25922 (E. coli ATCC 25922): >32 µg/mL | Antimicrobial activity (MIC) P. aeruginosa PAO1 (P. aeruginosa PAO1): >32 µg/mL | % Hemolytic activity, sheep red blood cells (Sheep red blood cells): 13.3% | Antimicrobial activity (MIC) K. pneumoniae ATCC 13883 (K. pneumoniae ATCC 13883): >32 µg/mL | Antimicrobial activity (MIC) E. coli ATCC 25922 MCR-1 (E. coli ATCC 25922 MCR-1): >32 µg/mL | Antimicrobial activity (MIC) A. baumannii ATCC 17961 (A. baumannii ATCC 17961): 32 µg/mL

CC[C@H](C)[C@@H]1NC(=O)[C@@H](NC(=O)[C@H](Cc2c[nH]c3ccccc23)NC(=O)[C@@H](CCCN)NC(=O)CNC(=O)[C@H](CCCN)NC(=O)[C@@H](CCCN)NC(=O)[C@@H](Cc2c[nH]c3ccccc23)NC(=O)[C@@H](Cc2ccc(O)cc2)NC(=O)[C@H](N)CO)[C@@H](C)OC(=O)CNC(=O)CNC(=O)[C@H](CC(N)=O)NC1=O [Compound 18] (H-[dS][dY][dW][dOrn][Orn]G[dOrn]WTINGG; ester 9-C)
Antimicrobial activity (MIC) S. aureus USA300 (S. aureus USA300): >32 µg/mL | Antimicrobial activity (MIC) E. coli ATCC 25922 (E. coli ATCC 25922): >32 µg/mL | Antimicrobial activity (MIC) P. aeruginosa PAO1 (P. aeruginosa PAO1): >32 µg/mL | % Hemolytic activity, sheep red blood cells (Sheep red blood cells): 0.2% | Antimicrobial activity (MIC) K. pneumoniae ATCC 13883 (K. pneumoniae ATCC 13883): >32 µg/mL | Antimicrobial activity (MIC) E. coli ATCC 25922 MCR-1 (E. coli ATCC 25922 MCR-1): >32 µg/mL | Antimicrobial activity (MIC) A. baumannii ATCC 17961 (A. baumannii ATCC 17961): >32 µg/mL
